Results taken from patent US7157092B1, “Acyl pseudodipeptides, preparation method and pharmaceutical compositions containing same” (Om Pharma, priority 1998, dated 2007).
Values joined by “and” are separate entries in the source; they are usually repeats but may differ in a detail not shown here. Identical values can stand only once. Like-named read-outs stand apart in the source and are kept apart here.

Legend:
LmCPb antigen [1] = type: in vivo, CBA mice; conditions: 2 injections LmCPb with adjuvant
[2] = system: PROb syngenic tumoral line; test: Treatment of peritoneal carcinoma induced by PROb cells in BDIX rats
LmCPb antigen [3] = test: Primary response to single injection of Leishmania mexicana LmCPb antigen: lymph node cell proliferation (3H-TdR take-up); type: in vivo, CBA mice; conditions: single injection LmCPb 2 μg + 50 μg adjuvant
Description: (§1) CBA mice were administered through the tail a single injection of LmCPb in a 2 μg dose either in combination or not with 50 μg of OM-294-MP adjuvant. A control group was administered one injection of physiological saline buffer (non immunized subjects). Eleven days later, cells of the inguinal and periaortic lymph nodes (groups of 3 mice each) were cultured and the proliferative response directed to the purified LmCPb antigen, to a preparation of whole amastigotes of Leishmania mexicana and to concanvalin A (ConA) was evaluated by measuring tritiated thymidine take-up (^3H-TdR). γ IFN and IL-4 cytokine production by lymph node lymphocytes rechallenged in vitro with LmCPb antigen of Leishmania mexicana or by amastigotes was equally determined by ELISA (MIF00 γ IFN & M4000 IL-4 kits, R&D Systems Europe Ltd, Abingdon, UK) using a sample of each culture supernatant of lymph node lymphocytes before addition of ^3H-TdR.
(§2) Values reported in the tables stand for the mean value±standard deviation (triplicate) expressed in cpm for ^3H-TdR take-up and the arithmetic mean±standard deviation (triplicate) expressed in pg per ml for cytokine production in supernatant fluids.
(§3) Antigen: LmCPb stock solution is prepared at a concentration of 40 μg/ml in PBS (2×).
(§4) The negative control consists of a PBS solution without antigen.
(§5) Antigen-adjuvant mixture: Adjuvants are maintained for 10 minutes at 37° C. before vortexing for 3 minutes. Then, the antigen (1 volume) and the adjuvant (1 volume) are mixed and vortexed briefly before being incubated for 20 minutes at 37° C., and finally the whole mixture is vortexed again for 3 minutes.

LmCPb antigen [4] = test: Primary response to single injection of LmCPb antigen: in vitro cytokine secretion by lymph node lymphocytes (ELISA); type: in vivo, CBA mice; conditions: single injection LmCPb + adjuvant
Description: as §1, §2, §3, §4, §5

[5] = system: mouse bone marrow stem cells; test: Bone marrow stem cell proliferation (XTT); type: cell-based, C57/BL6 mice; conditions: 7 days incubation, FIG. 1
Description: Two six-week old male C57/BL6 mice were killed by CO2 inhalation followed by cervical dislocation. The mice were washed with alcohol, and the skin of the posterior members was entirely removed. The hip, femur and tibia bones were removed by joint disruption. The flesh was grossly removed using a scalpel. The bones were cleaned and the bone ends were cut with scissors. The marrrow was extracted from the bone lumen by injecting three times 1 ml of Dulbecco's Modified Eagle Medium (DH medium) from the extremities which were cut with scissors. The cells were suspended in DH medium and centrifuged at 300×g for 5 minutes. The supernatant fluid was discarded and the stem cells were suspended in DH medium supplemented with 20% foetal calf serum (FCS) The cell concentration was adjusted to 500 000 cells/ml. […]
Proliferation is determined by measuring the oxydation of a chromogenic substrate (XTT) in mitochondria of viable cells.
7 days later, the microtiter plates are centrifuged for 5 minutes at 400×g, and 100 μl of the supernatant fluid are withdrawn and discarded. […] After 8 hour incubation at 37° C. under 8% CO2 in an incubator at 100% RH, the microtiter plates are read with a spectrophotometer at 480 nm against a standard at 690 nm.
The results are expressed as mean values (+standard deviation) by plotting a dose versus response curve. […]

gp63 antigen = type: in vivo, CBA mice
[6] = system: predendritic cells (DC-6); conditions: DC-9 stage
[7] = system: predendritic cells (DC-6); test: Dendritic cell maturation: FITC-Dextran conjugate incorporation; conditions: 0.02% g to 25 μg per ml; FIGS. 4, 5
[8] = in vitro: Amastigotes 17 × 10^−6/ml
[9] = 10 i.v. injections of 1 mg/kg from day 13
[10] = 10 i.v. injections of 1 mg/kg from day 13, dissection at D42

Question: For `CCCCCCCCCCCC(=O)O[C@H](CCCCCCCCCCC)CC(=O)NC(CCOP(=O)(O)O)C(=O)NCCCC(COP(=O)(O)O)NC(=O)C[C@H](O)CCCCCCCCCCC` (stereo partly drawn) [OM-294-DP, 3-[(R)-3-dodecanoyloxytetradecanoylamino]-4-oxo-5-aza-9-[(R)-3-hydroxytetradecanoylamino]decan-1,10-diol 1, 10-bis(dihydrogenphosphate)], which IL-4 concentration (LmCPb antigen [1]; [8]) is on record?
Answer: The IL-4 concentration was 130 pg/mL and 110 pg/mL.

Question: What about the “γ IFN concentration” value (LmCPb antigen [1]; [8]) of the same molecule?
Answer: The value was >600 pg/mL.

Question: What about the “γ IFN concentration” value (LmCPb antigen [1]; in vitro: Con A 5 μg/ml) of the same molecule?
Answer: The value was 1200 pg/mL and 1900 pg/mL.

Question: What about the IL-4 concentration (LmCPb antigen [1]; in vitro: LmCPb 15 μg/ml) of the same molecule?
Answer: The IL-4 concentration was 110 pg/mL and 88 pg/mL.

Question: What about the “γ IFN concentration” value (LmCPb antigen [1]; in vitro: LmCPb 15 μg/ml) of the same molecule?
Answer: The value was 520 pg/mL and 360 pg/mL.

Question: And the IL-4 concentration (LmCPb antigen [1]; in vitro: No stimulant)?
Answer: The IL-4 concentration was <8 pg/mL.

Question: And the “γ IFN concentration” value (LmCPb antigen [1]; in vitro: No stimulant)?
Answer: The value was 460 pg/mL and 240 pg/mL.

Question: What about the “Volume ascite, mean ± σ” value [2, 9] of the same molecule?
Answer: The value was 8 ± 23 ml/rat.

Question: And the “Volume ascite, range” value [2, 9]?
Answer: Its value is 0–73 ml/rat.

Question: What about the “animals surviving at day 42 following injection of tumor cells” value [2, 9] of the same molecule?
Answer: The value was 90%.

Question: And the “Number of rats suffering from carcinoma belonging to class 0 (no nodules visible)” value [2, 10]?
Answer: The value was 4.

Question: What about the “Number of rats suffering from carcinoma belonging to class 1” value [2, 10] of the same molecule?
Answer: Its value is 1.

Question: And the “Number of rats suffering from carcinoma belonging to class 2” value [2, 10]?
Answer: The value was 2.

Question: And the “Number of rats suffering from carcinoma belonging to class 3” value [2, 10]?
Answer: Its value is 1.

Question: And the “Number of rats suffering from carcinoma belonging to class 4” value [2, 10]?
Answer: The value was 2.

Question: What about the “anti-tumor activity in the peritoneal carcinoma model” value ([2]; rat, in vivo) of the same molecule?
Answer: Its value is “remarkable anti-tumor activity”.

Question: What about the “Effect of product on ascite volume, p (Variance analysis)” value ([2]; versus NaCl) of the same molecule?
Answer: Its value is “p < 0.05”.

Question: What about the “Effect of product on carcinoma classification, p (Kruskall-Wallis test)” value ([2]; versus NaCl) of the same molecule?
Answer: Its value is “p < 0.05”.

Question: And the “extension of rat survival rate, p (log rank test)” value ([2]; versus control)?
Answer: The value was < 0.001.

Question: What does the source list for `CCCCCCCCCCCC(=O)O[C@H](CCCCCCCCCCC)CC(=O)NC(CCOP(=O)(O)O)C(=O)NCCCC(CO)NC(=O)C[C@H](O)CCCCCCCCCCC` (stereo partly drawn) [OM-294-MP, 3-[(R)-3-dodecanoyloxytetradecanoylamino]-4-oxo-5-aza-9-[(R)-3-hydroxytetradecanoylamino]-decane-1,10-diol 1-dihydrogenphosphate]?
Answer: 3H-TdR take-up (LmCPb antigen [3]; in vitro: Amastigotes 1.9 × 10^−6/ml): 44 ± 7 cpm × 10^−3/ml; 3H-TdR take-up (LmCPb antigen [3]; in vitro: Amastigotes 6 × 10^−6/ml): 79 ± 6 cpm × 10^−3/ml; 3H-TdR take-up (LmCPb antigen [3]; [8]): 119 ± 4 cpm × 10^−3/ml; 3H-TdR take-up (LmCPb antigen [3]; in vitro: Con A 5 μg/ml): 196 ± 10 cpm × 10^−3/ml; 3H-TdR take-up (LmCPb antigen [3]; in vitro: LmCPb 0.6 μg/ml): 19 ± 4 cpm × 10^−3/ml; 3H-TdR take-up (LmCPb antigen [3]; in vitro: LmCPb 1.7 μg/ml): 40 ± 4 cpm × 10^−3/ml; 3H-TdR take-up (LmCPb antigen [3]; in vitro: LmCPb 5 μg/ml): 80 ± 5 cpm × 10^−3/ml; 3H-TdR take-up (LmCPb antigen [3]; in vitro: LmCPb 15 μg/ml): 140 ± 10 cpm × 10^−3/ml; 3H-TdR take-up (LmCPb antigen [3]; in vitro: No stimulant): 11 ± 2 cpm × 10^−3/ml; γ IFN production (LmCPb antigen [4]; in vitro: Amastigotes): 320 pg/mL; IL-4 production (LmCPb antigen [4]; in vitro: Amastigotes 17 × 10^−5/ml): 65 pg/mL; IL-4 production (LmCPb antigen [4]; in vitro: Con A 5 μg/ml): 360 pg/mL; γ IFN production (LmCPb antigen [4]; in vitro: Con A 5 μg/ml): >1800 pg/mL; IL-4 production (LmCPb antigen [4]; in vitro: LmCPb 15 μg/ml): 130 pg/mL; γ IFN production (LmCPb antigen [4]; in vitro: LmCPb 15 μg/ml): 480 pg/mL; IL-4 production (LmCPb antigen [4]; in vitro: No challenge): <8 pg/mL; γ IFN production (LmCPb antigen [4]; in vitro: No stimulant): 25 pg/mL; cell proliferation of mouse bone marrow stem cells [5]: more moderate response than the diphosphorylated product; IL-4 concentration (gp63 antigen; gp63 in vitro 0): <8 pg/mL; γ IFN concentration (gp63 antigen; gp63 in vitro 0): <9 pg/mL; IL-4 concentration (gp63 antigen; gp63 in vitro 0.3): 125 pg/mL; γ IFN concentration (gp63 antigen; gp63 in vitro 0.3): 135 pg/mL; IL-4 concentration (gp63 antigen; gp63 in vitro 0.6): 83 pg/mL; γ IFN concentration (gp63 antigen; gp63 in vitro 0.6): 120 pg/mL; CD40 expression, % of mean fluorescence based on LPS-induced expression ([6]; FIG. 6): 39%; CD86 expression, % of mean fluorescence based on LPS-induced expression ([6]; FIG. 7): 77%; CD83 expression, % of mean fluorescence based on LPS-induced expression ([6]; FIG. 8): 60%; CD80 expression, % of mean fluorescence based on LPS-induced expression ([6]; FIG. 9): 62%; differenciation of DC-6 into DC-9 cells (dose vs. response of FITC-Dextran incorporation) [7]: outstanding capacity to induce differenciation of DC-6 into DC-9 cells
